Our source for the cytotoxicity values is ChEMBL document CHEMBL3507680, “University of Dundee, Gates Library screen for HepG2 cell viability”.

The series in a line: Human HepG2 cell viability assay in 384 well format. The arrangement: dose 125 nL, time 70.5 hour; cytotoxicity at 70.5 h: concentration not given beside the values. To be noted: HepG2 cells, read-out: Inhibition. The class given is toxicity, cell-based.
Take `COc1cc(C(C)NCc2scnc2C)ccc1SC(F)F` (stereo not drawn): the cytotoxicity at 70.5 h is -9.67%.

With `O=C(CCN1CCc2cncnc2C1)N1CCc2sccc2C1`, the cytotoxicity at 70.5 h was -1.14%.

Consider `CC(C)CC(C)N(C)Cc1nnc(-c2ccco2)o1` (stereo not drawn), for which the cytotoxicity at 70.5 h stood at 31.7%.

As to `COCc1ccc(C(=O)N2CCCN(C(=O)OCC(C)C)CC2)cc1`, the cytotoxicity at 70.5 h was determined as 19%.

As for `Cc1cc(C2CCCN(C(=O)c3ccc(OCC4CC4)nc3)C2)n[nH]1` (stereo not drawn), the cytotoxicity at 70.5 h is -4.64%.

Consider `Cc1cc(Cl)ccc1NCC(=O)Nc1cc(C(C)(C)C)no1`, for which the cytotoxicity at 70.5 h is -6.23%.

With `CCCC(C)N(C)Cc1nnc(-c2ccco2)o1` (stereo not drawn), the cytotoxicity at 70.5 h stood at 1.45%.

On to `CCOC(=O)NCCC(=O)NCc1ccc(Oc2ccc(F)cc2)nc1`, for which the cytotoxicity at 70.5 h was 1.62%.

As for `CCc1noc(C)c1C(=O)NCc1ccccn1`, the cytotoxicity at 70.5 h is -0.245%.

Consider `CCOC(=O)NCCC(=O)NCc1ccc(Oc2cccc(F)c2)nc1`, for which the cytotoxicity at 70.5 h is -3.11%.

With `CC(NC(=O)CCc1nc(-c2nnc[nH]2)no1)c1ccc(F)cc1F` (stereo not drawn), the cytotoxicity at 70.5 h amounted to 4.47%.

With `CN(C)c1cc(C(=O)Nc2ccccc2C(=O)NC(C)(C)C)ccn1`, the cytotoxicity at 70.5 h was -2.3%.

As for `CCNC(=O)Cc1ccc(NC(=O)NC(CC)CC)cc1`, the cytotoxicity at 70.5 h turned out to be 1.05%.

As for `Cn1c(C2CCCN2C(=O)CN2CSCC2=O)nc2ccccc21` (stereo not drawn), the cytotoxicity at 70.5 h is -5.23%.

For `CC(C)COC(=O)N1CCCN(C(=O)c2ccnc(N(C)C)c2)CC1`, the cytotoxicity at 70.5 h amounted to 1.08%.

For `Cc1nc2cc(=O)[nH]n2c(C)c1CC(=O)Nc1cn[nH]c1`, the cytotoxicity at 70.5 h is -2.66%.

As for `CC(NC1(CNC(=O)CC2CCCC2)CCOCC1)c1ccccc1` (stereo not drawn), the cytotoxicity at 70.5 h was -6.24%.

`Cc1nc2cc(=O)[nH]n2c(C)c1CNC(=O)c1cnn(C(C)(C)C)c1`: the cytotoxicity at 70.5 h came to 4.01%.

Turning to `CCOC(=O)c1nnc2ccccc2c1N1CCOC(C)(C)C1`, the cytotoxicity at 70.5 h stood at 16.1%.

On to `O=C(NCc1ccc(CN2CCCC2)cc1)NCc1ccon1`, for which the cytotoxicity at 70.5 h was -3.38%.

Regarding `CSc1ccc(C(CC(=O)O)NC(=O)c2cc(C)on2)cc1` (stereo not drawn), the cytotoxicity at 70.5 h turned out to be 0.955%.

With `CC(NC1(CNC(=O)OC(C)(C)C)CCOCC1)c1ccccc1` (stereo not drawn), the cytotoxicity at 70.5 h is -5.89%.

In the case of `Cc1cn2c(n1)CCC(NS(=O)(=O)c1cc(C)sc1C)C2` (stereo not drawn), the cytotoxicity at 70.5 h is -3.85%.

For the compound `CC(=O)N1CCN(CCNS(=O)(=O)c2cccc(F)c2)CC1`, the cytotoxicity at 70.5 h is -0.607%.

Turning to `O=C(C1CCCCC1)N1CCC2(CC1)OCCO2`, the cytotoxicity at 70.5 h is -5.09%.

Take `Cc1ncsc1C(=O)Nc1ccccn1`: the cytotoxicity at 70.5 h was -6.03%.

Take `CC(=O)N1CCN(CCNS(=O)(=O)c2cc(F)cc(F)c2)CC1`: the cytotoxicity at 70.5 h was -0.303%.

Turning to `CC(C)COCCC(=O)NCCC(=O)N1CCN(c2ccccn2)CC1`, the cytotoxicity at 70.5 h was -2.77%.

Turning to `Cc1nc(C2(NCC(=O)NC(=O)Nc3ccccc3)CCCCC2)no1`, the cytotoxicity at 70.5 h was -0.595%.

Consider `Cc1nc(C2(NCC(=O)NCc3cccs3)CCCCC2)no1`, for which the cytotoxicity at 70.5 h is -2.14%.

Take `Cc1ccc(C(=O)N(C)Cc2ccc(Br)s2)c(=O)[nH]1`: the cytotoxicity at 70.5 h was determined as 2.28%.

Take `CC(C)Cc1cc(C(=O)NC(C)C)[nH]n1`: the cytotoxicity at 70.5 h is -4.46%.

Take `NC(=O)C(CNC(=O)CCc1ccccc1)Cc1ccc(F)cc1` (stereo not drawn): the cytotoxicity at 70.5 h was -2.33%.

Regarding `CC(=O)N1CCN(CCNS(=O)(=O)c2c(F)cccc2F)CC1`, the cytotoxicity at 70.5 h was -5.97%.

`CCc1ccc(C(=O)N2CCC(c3nncn3CC)CC2)o1`: the cytotoxicity at 70.5 h was -6.22%.

Regarding `O=C(NCCCNC(=O)c1ccccc1)Nc1ccc(F)cc1F`, the cytotoxicity at 70.5 h is -4.28%.

In the case of `CCn1cnnc1C1CCN(C(=O)c2ccc3c(c2)nnn3C)CC1`, the cytotoxicity at 70.5 h stood at 22.3%.

As for `CCn1cnnc1C1CCN(C(=O)c2cccc(N(C)C)c2)CC1`, the cytotoxicity at 70.5 h amounted to 1.66%.

For `CC(C)NC(=O)NCC(Cc1ccc(F)cc1)C(N)=O` (stereo not drawn), the cytotoxicity at 70.5 h came out at 21.5%.

With `CC(C)S(=O)(=O)CC(=O)NCC(Cc1ccc(F)cc1)C(N)=O` (stereo not drawn), the cytotoxicity at 70.5 h was 1.75%.

Turning to `Cc1cnc(CN(C)C2CCCN(c3cccnn3)C2)cn1` (stereo not drawn), the cytotoxicity at 70.5 h was -0.507%.

On to `CC(c1nc(C(C)(C)C)no1)N1CCN(C(=O)CN2CCOCC2)CC1` (stereo not drawn), for which the cytotoxicity at 70.5 h was -6.71%.

In the case of `Cc1ncc(CNC2CCc3nc(C(C)C)nn3C2)s1` (stereo not drawn), the cytotoxicity at 70.5 h was 1.67%.

`Cc1cc(CNC2CCc3nc(C(C)C)nn3C2)on1` (stereo not drawn): the cytotoxicity at 70.5 h is -5.91%.

Regarding `O=C(CCS(=O)(=O)C1CCCC1)N1CCCC1c1ccsc1` (stereo not drawn), the cytotoxicity at 70.5 h was -4.99%.

`Cc1ccc(NC(=O)CNc2cccc(C(N)=O)c2C)c(C)c1`: the cytotoxicity at 70.5 h is 33.2%.

For the compound `COc1ccc(C2CCCN2Cc2nnnn2C2CC2)cc1OC` (stereo not drawn), the cytotoxicity at 70.5 h was -0.63%.

In the case of `CN(Cc1ccncc1)C(=O)NC1CCS(=O)(=O)C1` (stereo not drawn), the cytotoxicity at 70.5 h is -3.72%.

For the compound `Cc1csc(CCNC(=O)Nc2cc(C(F)(F)F)c[nH]c2=O)n1`, the cytotoxicity at 70.5 h is -1.34%.

In the case of `COCCOCCNC(=O)c1cccc(Cn2nc(C)cc2C)c1`, the cytotoxicity at 70.5 h amounted to 34.2%.

As to `Cc1nc(CNC(=O)Nc2cc(C(F)(F)F)c[nH]c2=O)cs1`, the cytotoxicity at 70.5 h stood at 1.62%.

As for `CC(C)CN1CCC(NC(=O)c2ccc(Cl)cc2Cl)CC1`, the cytotoxicity at 70.5 h is -1.21%.

As to `CCOCCNC(=O)c1cccc(Cn2nc(C)cc2C)c1`, the cytotoxicity at 70.5 h is -7.21%.

With `N#CCCCOc1cccnc1NC(=O)CCC1CCCC1`, the cytotoxicity at 70.5 h was -0.625%.

For `CCc1nnc2n1CCN(C(=O)c1ccc(C)c(S(N)(=O)=O)c1)C2`, the cytotoxicity at 70.5 h is -1.49%.

For `O=C(CN1CCCC1Cn1cncn1)Nc1nccs1` (stereo not drawn), the cytotoxicity at 70.5 h was -7%.

Consider `COc1ccc(CNCCc2cc(F)cc3c2OCOC3)cc1OC`, for which the cytotoxicity at 70.5 h was found to be 2.03%.

Take `CCN(CC)C(=O)CNC(=O)c1ccc(-c2ccsc2)nc1C`: the cytotoxicity at 70.5 h was determined as 59.9%.

As to `Cc1cnn(CC2CN(CC(=O)Nc3cccnc3)CCO2)c1` (stereo not drawn), the cytotoxicity at 70.5 h was -4.29%.

Turning to `Cc1nc(CN2CCC(N(C)Cc3noc(C(C)C)n3)C2)oc1C` (stereo not drawn), the cytotoxicity at 70.5 h worked out at 10.7%.

As to `CCc1cnc(CN(C)C2CCN(CCNS(=O)(=O)CC)C2)o1` (stereo not drawn), the cytotoxicity at 70.5 h came to 2.11%.

With `CCc1cnc(CN(C)C2CCN(CC3CCOCC3)C2)o1` (stereo not drawn), the cytotoxicity at 70.5 h was 4.66%.

Regarding `CCCc1n[nH]c(C2CN(C(=O)CCCn3ccnc3)CCO2)n1` (stereo not drawn), the cytotoxicity at 70.5 h was -0.218%.

`Fc1ccc(CNCCn2cccn2)c(F)c1`: the cytotoxicity at 70.5 h was determined as 21.2%.

In the case of `Cc1ccc(C(=O)N2CCCC2c2nnc3n2CCCCC3)s1` (stereo not drawn), the cytotoxicity at 70.5 h was 8.9%.

As for `Cc1cc(C(=O)N2CCCC2c2nnc3n2CCCCC3)on1` (stereo not drawn), the cytotoxicity at 70.5 h was -2.64%.

As to `CCCOc1cc(C)ccc1NC(=O)NCCNC(=O)C(C)C`, the cytotoxicity at 70.5 h was found to be 25.7%.

With `Cc1nn(C)c(C)c1CCC(=O)N(C)Cc1ccc(C#N)cc1`, the cytotoxicity at 70.5 h came to 1.66%.

In the case of `O=C(c1ccc(Cl)o1)N1CCCC1c1nnc2n1CCCCC2` (stereo not drawn), the cytotoxicity at 70.5 h was 1.9%.

For `Cc1ncncc1C(=O)NCCN1CCC(C)CC1`, the cytotoxicity at 70.5 h is 5.52%.

Take `Cc1nn(C)c(N2CCOCC2)c1CNC(C(N)=O)c1ccccc1` (stereo not drawn): the cytotoxicity at 70.5 h was 4.26%.

As to `CS(=O)(=O)N1CCC(Oc2ccc(C#N)cc2)CC1`, the cytotoxicity at 70.5 h stood at 7.19%.

Turning to `CN(C)C(=O)c1cnc(-c2ccc3c(c2)OCO3)s1`, the cytotoxicity at 70.5 h is 6.77%.

Regarding `CC(C)N(CC(N)=O)C(=O)c1cnc(-c2ccc3c(c2)OCO3)s1`, the cytotoxicity at 70.5 h stood at 5.92%.

In the case of `CC(C)c1nnc2n1CC(CNCc1nc3ccccc3s1)CC2` (stereo not drawn), the cytotoxicity at 70.5 h was 21.9%.

Regarding `COc1ccc(CN(C)C(=O)Cc2c(C)nn(C)c2C)cc1F`, the cytotoxicity at 70.5 h stood at 2.24%.

Consider `COc1ccc(C2CCCCCN2S(C)(=O)=O)cc1` (stereo not drawn), for which the cytotoxicity at 70.5 h turned out to be 1.84%.

Take `CCS(=O)(=O)CCN1CCC(N(C)Cc2ncc(C)o2)C1` (stereo not drawn): the cytotoxicity at 70.5 h was 0.306%.

On to `CCc1n[nH]c(C2CN(C(=O)CCCn3cccn3)CCO2)n1` (stereo not drawn), for which the cytotoxicity at 70.5 h was 2.59%.

As for `Cc1ccc(NCCCNC(=O)NCC2CCS(=O)(=O)C2)nc1` (stereo not drawn), the cytotoxicity at 70.5 h was -17.4%.

As to `Cc1ccc(-c2nnc(CN3CC(n4cc(C)cn4)C3)o2)cc1`, the cytotoxicity at 70.5 h was -13.9%.

Take `NC(=O)c1cccc(CNC/C=C/c2ccccc2)c1`: the cytotoxicity at 70.5 h was determined as 12.6%.

As for `COC(=O)NCC(=O)NC(c1ccc(Cl)cc1)C(F)(F)F` (stereo not drawn), the cytotoxicity at 70.5 h is -8.75%.

As to `Cc1cc(-c2noc(C3CCS(=O)(=O)C3)n2)ccc1F` (stereo not drawn), the cytotoxicity at 70.5 h was -11%.

Turning to `NC(=O)C1CN(C(=O)NCC2(c3ccc(F)cc3)CCC2)CCO1` (stereo not drawn), the cytotoxicity at 70.5 h turned out to be 1.35%.

Consider `O=C(NCC1(c2ccc(F)cc2)CC1)N1CCC2(CCOC2)C1` (stereo not drawn), for which the cytotoxicity at 70.5 h came to 13.9%.

On to `CN(CCNS(C)(=O)=O)CC(c1cccs1)N1CCOCC1` (stereo not drawn), for which the cytotoxicity at 70.5 h was -8.66%.

On to `CC(C)N(CCNCc1ccc(C#N)cc1)C1CC1`, for which the cytotoxicity at 70.5 h amounted to 17.7%.

Consider `O=C(NCC1(c2ccc(F)cc2)CCC1)N1CCC2(C1)OCCO2`, for which the cytotoxicity at 70.5 h was -8.6%.

As for `CCc1sc(-c2nnc(CNC(C)Cn3cc(C)cn3)o2)cc1C` (stereo not drawn), the cytotoxicity at 70.5 h amounted to 5.1%.

Turning to `CCc1sc(-c2nnc(CNC(C)Cn3cccn3)o2)cc1C` (stereo not drawn), the cytotoxicity at 70.5 h was -11.3%.

Regarding `Cc1cnn(C2CN(Cc3nnc(Cc4ccccc4)o3)C2)c1`, the cytotoxicity at 70.5 h was -13.1%.

Consider `CN(C)C(=O)CNC(CC(F)(F)F)c1ccc(F)cc1` (stereo not drawn), for which the cytotoxicity at 70.5 h is 7.18%.

For the compound `COCC1CCCN(C(=O)c2ccccc2NCc2cccnc2)C1` (stereo not drawn), the cytotoxicity at 70.5 h was 3.32%.

For the compound `OCCCN(CCc1cccc(F)c1)C1CC1`, the cytotoxicity at 70.5 h was -4.09%.

For `CN(C)c1nc(N)nc(CN2CCCC2c2cccs2)n1` (stereo not drawn), the cytotoxicity at 70.5 h amounted to 0.514%.

In the case of `NC(=O)NC(=O)CCSCc1coc(-c2ccc(F)cc2)n1`, the cytotoxicity at 70.5 h is -3.5%.

On to `Cn1c2ncccc2c(=O)n1CC(=O)Nc1ccc(F)c(F)c1`, for which the cytotoxicity at 70.5 h was -3.2%.

For the compound `Cc1cccc(-n2cnc(Cl)c2C(=O)O)c1`, the cytotoxicity at 70.5 h was -16.5%.

Consider `COCCOc1ccc(CNc2nc3ccccc3nc2N)cn1`, for which the cytotoxicity at 70.5 h is -3.46%.

Take `O=C(O)c1ccnc(SCC(F)(F)F)c1`: the cytotoxicity at 70.5 h is -10.8%.

In the case of `Cn1c2ncccc2c(=O)n1CC(=O)NCCc1c(F)cccc1F`, the cytotoxicity at 70.5 h was -7.19%.

For the compound `O=C(NC1CCCN(c2ccccc2Cl)C1)c1ccc(=O)[nH]n1` (stereo not drawn), the cytotoxicity at 70.5 h was -12.6%.
